What was measured:
[1] = target: T1, memapsin 2 (Cricetulus griseus, UniProt G3IAK4); assay: Cellular Aβ IC50 determination (Aβ40 sandwich ELISA); format: cell-based, Chinese hamster; settings: CHO cells over-expressing human APP695 with London and Swedish mutations, 24 h, read-out: M2 IC50
T1 construct: endogenous in cells; host or cells: Chinese hamster ovary cells over-expressing human APP695 (London + Swedish)
Method: The potency of compounds against memapsin 2 activity was determined in a cellular assay of Aβ production. […] Chinese hamster ovary cells that over-express human APP695 with the London and Swedish mutations were seeded in multi-well plates at 10% confluency. Compounds are dissolved in DMSO to concentrations near 1 mM, and diluted into culture media to a final concentration near 4 μM (final 0.4% DMSO). Compounds were diluted serially and applied to cells in multi-well plates 48 h after seeding. Incubation was continued in 5% CO2 at 37° C. for 24 h. Aliquots were removed and assayed for […] using a sandwich ELISA (BioSource International). Amount of Aβ40 over the range of concentration of compounds, relative to control incubations, were fit to a 4-parameter IC50 model.

[2] = target: memapsin 2 (Homo sapiens, UniProt P56817); assay: Inhibition of memapsin 2 beta-secretase activity (fluorogenic substrate FS-2); format: biochemical; settings: pH 4, 37° C., read-out: M2 Ki
Method: Potency of compounds were determined by measurement of their inhibition of memapsin 2 activity toward a fluorescent substrate. Kinetic inhibition experiments were performed using the procedure as described in Ermolieff, et al. (Biochemistry 39:12450-12456 (2000), the teachings of which are incorporated hereby in their entirety). Briefly, assays were performed at pH 4, 37° C., by pre-incubation of memapsin 2 enzyme with compound for 20 minutes. Activity measurements were initiated by addition of a fluorogenic substrate FS-2 (Bachem Americas, Torrance, Calif.) MCA-SEVNLDAEFR-DNP (SEQ ID NO.: 2). The substrate was derived from 10 amino acids of the human amyloid precursor protein (APP), with the Swedish variant amino acids at the beta-secretase cleavage site. The terminal amino acid was modified from arginine to lysine to facilitate derivatization with a functional group for detection by autofluorescence. The amino acid sequence of the “core” peptide of the substrate is SEVNLDAEFK (SEQ ID NO.: 3). The amino terminus was derivatized with (7-methoxycoumarin-4-yl)acetyl (MCA), and the epsilon amine of the lysine side chain of the terminal residue (K in sequence SEVNLDAEFK (SEQ ID NO.: 3)) was derivatized with 2,4-dinitorphenyl (DNP).

T1 sequence (G3IAK4 22-501): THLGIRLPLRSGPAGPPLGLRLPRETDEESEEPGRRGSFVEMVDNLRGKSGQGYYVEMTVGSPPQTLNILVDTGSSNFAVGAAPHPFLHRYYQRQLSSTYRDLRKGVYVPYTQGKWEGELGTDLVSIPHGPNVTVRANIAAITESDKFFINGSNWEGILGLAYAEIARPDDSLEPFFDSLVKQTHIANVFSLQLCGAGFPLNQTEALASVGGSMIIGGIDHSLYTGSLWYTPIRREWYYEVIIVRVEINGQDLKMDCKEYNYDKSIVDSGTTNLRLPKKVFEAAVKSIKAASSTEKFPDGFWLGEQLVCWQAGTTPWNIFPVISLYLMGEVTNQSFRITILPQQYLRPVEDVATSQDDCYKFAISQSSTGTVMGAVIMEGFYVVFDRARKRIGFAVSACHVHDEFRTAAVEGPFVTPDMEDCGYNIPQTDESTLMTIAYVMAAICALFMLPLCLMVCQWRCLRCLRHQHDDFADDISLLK
memapsin 2 (Homo sapiens, UniProt P56817), sequence (P56817 46-501): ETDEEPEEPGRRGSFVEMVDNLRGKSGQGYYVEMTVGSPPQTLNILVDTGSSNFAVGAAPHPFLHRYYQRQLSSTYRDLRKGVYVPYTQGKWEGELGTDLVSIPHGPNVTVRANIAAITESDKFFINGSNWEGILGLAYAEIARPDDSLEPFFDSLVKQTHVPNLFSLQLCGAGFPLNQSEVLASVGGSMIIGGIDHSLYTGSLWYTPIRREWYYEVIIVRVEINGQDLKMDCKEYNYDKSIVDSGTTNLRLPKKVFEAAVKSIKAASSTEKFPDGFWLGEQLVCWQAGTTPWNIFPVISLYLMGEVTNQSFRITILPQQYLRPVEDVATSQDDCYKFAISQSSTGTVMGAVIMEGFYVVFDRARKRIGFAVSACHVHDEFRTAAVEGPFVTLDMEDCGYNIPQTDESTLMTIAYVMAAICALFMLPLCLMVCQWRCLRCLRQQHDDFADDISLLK

Row | Structure (SMILES) | IC50 [1] | Ki [2]
1 | C[C@@H](NC(=O)c1cc(C(=O)N[C@@H](Cc2ccccc2)[C@H](O)[C@H]2CCCN2C(=O)OC(C)(C)C)cc(N(C)S(C)(=O)=O)c1)c1ccccc1 [1-5, (R)-tert-butyl 2-((1S,2S)-1-hydroxy-2-(3-(N-methylmethylsulfonamido)-5-((R)-1-phenylethylcarbamoyl)benzamido)-3-phenylpropyl)pyrrolidine-1-carboxylate] | > 1000 nM | > 750 nM
2 | Cc1cc(C(=O)N[C@@H](Cc2ccccc2)[C@H](O)[C@H]2CCCN2C(=O)OC(C)(C)C)cc(C(=O)N2CCC[C@@H]2c2nc(C)co2)c1 [1-6, (R)-tert-butyl 2-((1S,2S)-1-hydroxy-2-(3-methyl-5-((R)-2-(4-methyloxazol-2-yl)pyrrolidine-1-carbonyl)benzamido)-3-phenylpropyl)pyrrolidine-1-carboxylate] | > 1000 nM | > 750 nM
3 | Cc1csc(CN(C)C(=O)c2cc(C(=O)N[C@@H](Cc3ccccc3)[C@H](O)[C@H]3CCCN3C(=O)OC(C)(C)C)cc(-c3ncco3)c2)n1 [1-7, (R)-tert-butyl 2-((1S,2S)-1-hydroxy-2-(3-(methyl((4-methylthiazol-2-yl)methyl)carbamoyl)-5-(oxazol-2-yl)benzamido)-3-phenylpropyl)pyrrolidine-1-carboxylate] | > 1000 nM | > 750 nM
4 | Cc1csc(CN(C)C(=O)c2cccc(C(=O)N[C@@H](Cc3ccccc3)[C@H](O)[C@H]3C[C@@H](O)CN3)c2)n1 [1-10, N1-((1R,2S)-1-hydroxy-1-((2R,4R)-4-hydroxypyrrolidin-2-yl)-3-phenylpropan-2-yl)-N3-methyl-N3-((4-methylthiazol-2-yl)methyl)isophthalamide] | > 1000 nM | 250 to 750 nM
5 | Cc1coc([C@H]2CCCN2C(=O)c2cc(C(=O)N[C@@H](Cc3ccccc3)[C@H](O)[C@H]3CCCN3)cc(-c3cnccn3)c2)n1 [1-21, N-((1R,2S)-1-hydroxy-3-phenyl-1-((R)-pyrrolidin-2-yl)propan-2-yl)-3-((R)-2-(4-methyloxazol-2-yl)pyrrolidine-1-carbonyl)-5-(pyrazin-2-yl)benzamide] | < 500 nM | < 250 nM
6 | Cc1coc([C@H]2CCCN2C(=O)c2cc(C(=O)N[C@@H](Cc3ccccc3)[C@H](O)[C@H]3CCCN3)cc(-c3ccccn3)c2)n1 [1-24, N-((1R,2S)-1-hydroxy-3-phenyl-1-((R)-pyrrolidin-2-yl)propan-2-yl)-3-((R)-2-(4-methyloxazol-2-yl)pyrrolidine-1-carbonyl)-5-(pyridin-2-yl)benzamide] | < 500 nM | < 250 nM
7 | Cc1csc(CN(C)C(=O)c2cc(C(=O)N[C@@H](Cc3ccccc3)[C@H](O)[C@H]3CCCN3)cc(N(C)S(C)(=O)=O)c2)n1 [1-27, N1-((1R,2S)-1-hydroxy-3-phenyl-1-((R)-pyrrolidin-2-yl)propan-2-yl)-N3-methyl-5-(N-methylmethylsulfonamido)-N3-((4-methylthiazol-2-yl)methyl)isophthalamide] | < 500 nM | 250 to 750 nM
8 | Cc1csc([C@H]2CCCN2C(=O)c2cc(C(=O)N[C@@H](Cc3ccccc3)[C@H](O)[C@H]3CCCN3)cc(N(C)C)c2)n1 [1-42, 3-(dimethylamino)-N-((1R,2S)-1-hydroxy-3-phenyl-1-((R)-pyrrolidin-2-yl)propan-2-yl)-5-((R)-2-(4-methylthiazol-2-yl)pyrrolidine-1-carbonyl)benzamide] | > 1000 nM | 250 to 750 nM
9 | Cc1csc([C@H]2CCCN2C(=O)c2cc(CF)cc(C(=O)N[C@H](Cc3ccccc3)[C@H](O)[C@H]3C[C@@H](OCc4ccccc4)CN3)c2)n1 [1-45, N-((1R,2R)-1-((2R,4R)-4-(benzyloxy)pyrrolidin-2-yl)-1-hydroxy-3-phenylpropan-2-yl)-3-(fluoromethyl)-5-((R)-2-(4-methylthiazol-2-yl)pyrrolidine-1-carbonyl)benzamide] | > 1000 nM | > 750 nM
10 | Cc1csc([C@H]2CCCN2C(=O)c2cc(C(=O)N[C@@H](Cc3ccccc3)[C@H](O)[C@H]3CCCN3)cc(N3CCC(F)(F)CC3)c2)n1 [1-46, 3-(4,4-difluoropiperidin-1-yl)-N-((1R,2S)-1-hydroxy-3-phenyl-1-((R)-pyrrolidin-2-yl)propan-2-yl)-5-((R)-2-(4-methylthiazol-2-yl)pyrrolidine-1-carbonyl)benzamide] | 500 to 1000 nM | 250 to 750 nM
11 | Cc1csc([C@H]2CCCN2C(=O)c2cccc(C(=O)N[C@@H](Cc3ccccc3)[C@H](O)[C@H]3C[C@H](F)CN3)c2)n1 [1-47, N-((1R,2S)-1-((2R,4S)-4-fluoropyrrolidin-2-yl)-1-hydroxy-3-phenylpropan-2-yl)-3-((R)-2-(4-methylthiazol-2-yl)pyrrolidine-1-carbonyl)benzamide] | > 1000 nM | 250 to 750 nM
12 | Cc1csc([C@H]2CCCN2C(=O)c2cccc(C(=O)N[C@@H](Cc3ccccc3)[C@H](O)[C@@H]3CCCN3)c2)n1 [1-48, N-((1R,2S)-1-hydroxy-3-phenyl-1-((S)-pyrrolidin-2-yl)propan-2-yl)-3-((R)-2-(4-methylthiazol-2-yl)pyrrolidine-1-carbonyl)benzamide] | > 1000 nM | > 750 nM
13 | Cc1csc([C@H]2CCCN2C(=O)c2cc(C(=O)N[C@@H](Cc3ccccc3)[C@H](O)[C@H]3CCCN3)cc(C3CC3)c2)n1 [1-50, 3-cyclopropyl-N-((1R,2S)-1-hydroxy-3-phenyl-1-((R)-pyrrolidin-2-yl)propan-2-yl)-5-((R)-2-(4-methylthiazol-2-yl)pyrrolidine-1-carbonyl)benzamide] | > 1000 nM | < 250 nM
14 | Cc1csc([C@H]2CCCN2C(=O)c2cccc(C(=O)N[C@@H](Cc3ccccc3)[C@H](O)[C@H]3CC[C@@H](C)N3)c2)n1 [1-51, N-((1R,2S)-1-hydroxy-1-((2R,5R)-5-methylpyrrolidin-2-yl)-3-phenylpropan-2-yl)-3-((R)-2-(4-methylthiazol-2-yl)pyrrolidine-1-carbonyl)benzamide] | > 1000 nM | > 750 nM
15 | Cc1csc([C@H]2CCCN2C(=O)c2cccc(C(=O)N[C@@H](Cc3cccc(F)c3)[C@H](O)[C@H]3CCCN3)c2)n1 [1-53, N-((1R,2S)-3-(3-fluorophenyl)-1-hydroxy-1-((R)-pyrrolidin-2-yl)propan-2-yl)-3-((R)-2-(4-methylthiazol-2-yl)pyrrolidine-1-carbonyl)benzamide] | 500 to 1000 nM | < 250 nM
